Laboratory results taken from ChEMBL document CHEMBL5604061, “ASAP - WNV NS2B-NS3 protease fluorescence dose response” (2024).
“And” between values parts separate entries of the source, which are not always exact repeats. Identical values can stand only once.

The compounds below were run against T1, NS3 (West Nile virus, UniProt K4FQI5) (assay: Functional biochemical assay to identify treatments for viral infectious disease that targets West Nile NS2B-NS3 protease. Utilizing a direct enzyme activity measurement method, reading the fluorescence intensity is used to characterize the relative potency of inhibitors as IC50.).
T1 sequence (K4FQI5 whole entry): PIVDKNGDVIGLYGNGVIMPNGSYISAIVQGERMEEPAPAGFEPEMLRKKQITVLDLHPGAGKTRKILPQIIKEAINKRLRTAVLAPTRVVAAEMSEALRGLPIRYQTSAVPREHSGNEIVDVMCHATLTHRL
Set-up: species or system NY-99

Row | SMILES | IC50
1 | O=C(NCC(F)F)[C@H](Nc1ccc2c(c1)CNC2)c1cc(Cl)cc(C2CC2)c1 | 129 nM (2×) and 840 nM
2 | CC(C)NC(=O)[C@H](Nc1ccc2c(c1)CNC2)c1cc(Cl)cc2[nH]ncc12 | 386 nM and 292 nM and 336 nM
3 | Cn1cc2cc(Cl)cc(C(=O)Nc3ccc4c(c3)CNC4)c2n1 | > 24900 nM
4 | CNC(=O)[C@H](Nc1ccc2c(c1)CNC2)c1cc(Cl)cc(C2CC2)c1 | 447 nM
5 | O=C(Nc1ccc2c(c1)CNC2)c1cc(Br)cc2[nH]c(-c3ccccc3)nc12 | 11400 nM
6 | N#C[C@H](Nc1ccc2c(c1)CNC2)c1cc(Cl)cc(C2CC2)c1 | 59000 nM
7 | Clc1cc(CNc2ccc3c(c2)CNC3)c2cn[nH]c2c1 | 46100 nM
8 | O=C(NC1CCOCC1)[C@H](Nc1ccc2c(c1)CNC2)c1cc(Cl)cc(C2CC2)c1 | 186 nM
9 | Cn1cc(CNC(=O)[C@H](Nc2ccc3c(c2)CNC3)c2cc(Cl)cc(C3CC3)c2)cn1 | 1080 nM
10 | Cn1cc(CCc2nc3c(C(=O)Nc4ccc5c(c4)CNC5)cc(Cl)cc3[nH]2)cn1 | 44500 nM
11 | O=C(Nc1ccc2c(c1)CNC2)c1cc(F)cc2[nH]ncc12 | 1420 nM
12 | Cc1c(C(=O)Nc2cc([C@H]3CCOC3)ccn2)cc(C2CC2)n1C | 2680 nM
13 | CC(C)NC(=O)[C@H](Nc1ccc2c(c1)CNC2)c1cc(Cl)cc2[nH]c(-c3ccccc3)nc12 | 280 nM and 286 nM and 152 nM and 255 nM
14 | O=C(Nc1cc2c(cc1Br)CNC2)c1cc(Cl)cc2[nH]ncc12 | 2730 nM
15 | O=C(Nc1ccc2c(c1)CNC2)c1cccc2[nH]c(C(F)(F)F)cc12 | 2510 nM
16 | CNC(=O)[C@H](Nc1cc(Cl)cc2[nH]ncc12)c1ccc2c(c1)CNC2 | 88400 nM
17 | C=CC[C@H]1NCc2cc(NC(=O)c3cccc4c3CC(=O)N4)ccc21 | 8030 nM
18 | O=C(Nc1ccc2c(c1)CN[C@H]2C[C@H](O)CO)c1cc(F)cc2[nH]ncc12 | 2410 nM
19 | O=C(NCC(F)F)[C@H](Nc1ccc2c(c1)CNC2)c1cc(F)cc2[nH]ccc12 | 768 nM
20 | C=CC[C@H]1NCc2cc(NC(=O)c3cc(Cl)cc4[nH]ncc34)ccc21 | 14100 nM
21 | O=C(NCCC1CC1)[C@H](Nc1ccc2c(c1)CNC2)c1cc(Cl)cc(C2CC2)c1 | 698 nM

Row | SMILES | IC50
22 | O=C(Nc1ccc2c(c1)CNC2)c1cc(Cl)cc2cc[nH]c12 | 16300 nM
23 | C=CC[C@H]1NCc2cc(NC(=O)c3cc(F)cc4[nH]ncc34)ccc21 | 4140 nM
24 | O=C(Nc1cc(Br)c2c(c1)CNC2)c1cc(F)cc2[nH]ncc12 | 915 nM and 957 nM
25 | O=C(NCC(F)F)[C@H](Nc1ccc2c(c1)CNC2)c1cc(F)cc2[nH]ncc12 | 247 nM
26 | O=C1Cc2c(cc(F)cc2C(=O)Nc2ccc3c(c2)CNC3)N1 | 537 nM and 576 nM
27 | C=CC[C@H]1NCc2cc(N[C@H](C(=O)NC(C)C)c3cc(Cl)cc4[nH]ncc34)ccc21 | 886 nM
28 | CC(C)NC(=O)[C@H](Nc1ccc2c(c1)CNC2)c1cccc2cn[nH]c12 | 14100 nM
29 | Cn1c(=O)[nH]c2c(C(=O)Nc3ccc4c(c3)CNC4)cc(Br)cc21 | 14400 nM
30 | O=C(NCC(F)F)[C@H](Nc1ccc2c(c1)CNC2)c1cc(Cl)cc2[nH]ncc12 | 2640 nM
31 | O=C(Nc1cc2c(c(C3=CC[C@H](O)CC3)c1)CNC2)c1cc(Cl)cc2[nH]ncc12 | 3820 nM
32 | O=C(Nc1ccc2c(c1)CNC2)c1cc(F)cc2c1CCC2 | 4410 nM
33 | O=C(Nc1ccc2c(c1)CNC2)c1cc(Cl)cc(C(F)(F)F)n1 | 40100 nM
34 | C=CC[C@H]1NCc2cc(NC(=O)c3cc(F)cc4c3CC(=O)N4)ccc21 | 1920 nM
35 | O=C(Nc1ccc2c(c1)CNC2)c1cccc2nc(O)ccc12 | 6710 nM
36 | CSCCNC(=O)[C@H](Nc1ccc2c(c1)CNC2)c1cc(Cl)cc(C2CC2)c1 | 514 nM
37 | O=C(Nc1ccc2c(c1)CNC2)c1cc(F)cc2nn(-c3ccccn3)nc12 | 7110 nM
38 | O=C1Cc2cc(C(=O)Nc3ccc4c(c3)CNC4)ccc2N1 | 16700 nM
39 | O=C(Nc1ccc2c(c1)CNC2)c1cc(F)cc2[nH]c(-c3ccccc3)nc12 | 16000 nM
40 | O=C(Nc1ccc2c(c1)CNC2)c1cc(Cl)cc2nn(-c3ccccc3)nc12 | 21500 nM
41 | O=C(Nc1cc2c(cc1Br)CNC2)c1cc(F)cc2[nH]ncc12 | 1250 nM
42 | Nc1nc2c(Br)cc(C(=O)Nc3ccc4c(c3)CNC4)cc2s1 | > 99500 nM
